# Data: patent US20240336679A1, “METHODS FOR THE TREATMENT OF CANCER” (INSTITUT REGIONAL DU CANCER DE MONTPELLIER, priority 2021, published 2024)
# Counter-ions that a name gives are not always drawn.
# Key:
# [1] = tested on: PHGDH, PSAT1 and PSPH mRNA in C2C12 myoblasts cocultured with IB115 liposarcoma cells; assay: Anti-IL-6 assay: RT-qPCR of serine synthesis genes in C2C12 myoblasts cocultured with IB115 cells treated with IL-6 signaling inhibitors; type: cell-based, mouse; settings: FIG. 11; for PSPH relative mRNA level: co-culture myoblasts with LPS, without inhibitors about 3.1; for PHGDH relative mRNA level / PSAT1 relative mRNA level: co-culture myocytes with LPS; for PHGDH relative mRNA level: without inhibitors 1.6; for PSAT1 relative mRNA level: without inhibitors about 2; for IL-6 dependent enhancement of the serine synthesis way (PHGDH, PSAT, PSPH mRNA): C2C12 myoblasts cocultured with IB115
# Procedure: (§1) Total mRNAs were isolated from myoblasts (C2C12 cells) using TRIzol Reagent (Invitrogen) as previously described (Riscal et al. Mol Cell. 2016 Jun. 16; 62 (6): 890-902). Afterwards, Reverse Transcription of 1 μg mRNA into cDNA was performed using SuperScript III Reverse Transcriptase (Invitrogen), according to the manufacturer protocol. Quantification of the produced cDNA was achieve by Real-time quantitative PCRs on a LightCycler 480 SW 1.5 apparatus (Roche) using SYBR Green mix (Ozyme) plus the oligonucleotides of interest, and the following amplification protocol: 45 cycles of 95° C. for 4 s, 60° C. for 10 s, and 72° C. for 15 s. Analysis of the relative gene expression (mRNA copy number) was realized using Ct values and the 2^−ΔCt method, normalized on at least two different housekeeping genes (TBP, Tubuline, RPL13a, Gus B, β-microglobuline).
# Relative quantities of mRNA of MDM2 direct target genes PHGDH, PSAT1 and PSPH were determined by RT-qPCR in C2C12 cells culture alone or in coculture with IB115 cells treated or not with a blocking anti-IL-6 antibody (Wijdenes et al., Mol Immunol, 28 (1991), p. 1183),i.e., IL-6 receptor inhibitor such as Bazedoxifène, or STAT3 inhibitors such as C188-9 and Stattic (mean+/−SD; n=3 independent experiments). Statistical significance was evaluated using non-parametric Mann-Whitney U tests.
# [2] = tested on: cancer cells exhibiting recruitment of MDM2 to chromatin (C-MDM2 (+)); assay: Cell viability / IC50 measurement (SRB assay) upon SP141 treatment; type: cell-based, human; settings: FIG. 8; as soon as 24 hours after treatment with low concentrations
# Procedure: Cell survival after SP141, IL-6, IL-6 inhibitor and/or serine/glycine deprived diet treatment (IC50) was determined using the Sulforhodamine B assay (SRB assay). Cells were seeded in 96-well plates (Sarsted) in complete DMEM medium as to obtain triplicates for each conditions (5 000 cells/well). After 24 h, serial dilutions of the indicated compounds were added to the cells. […] Fixed SRB was finally dissolved in 10 mM Tris-HCl solution and 560 nm absorbance was read using a PHERAstar FSX plate reader.
# [3] = tested on: XG-6 cells; assay: Growth of IL-6 dependent cell line XG-6; type: cell-based; settings: FIG. 3; RPMI, 2 ng/ml, 3 days; no growth without IL-6
# Procedure: 50 000 XG-6 cells (IL-6 dependent cell line) were seeded in an equal number in four plastic dishes and cultured in suspension in 2 ml of RPMI (Gibco) medium at 37° C./5% CO2 for 3 days. The fourth dishes' conditions are as follows: • XG-6 cells cultured in 2 ml of RPMI in the presence of 2 ng/ml of recombinant IL-6 (obtained with the method illustrated in Wijdenes et al., Mol Immunol, 28 (1991), p. 1183) • XG-6 cells cultured in 2 ml of RPMI, • XG-6 cells cultured in 2 ml of MCF7 cell lines supernatant as previously obtained, • XG-6 cells cultured in 2 ml of IB115 cell lines supernatant as previously obtained.
# [4] = tested on: PHGDH, PSAT1 and PSPH mRNA in C2C12 myoblasts cocultured with IB115 liposarcoma cells; assay: shRNA assay: RT-qPCR of serine synthesis genes in C2C12 myoblasts cocultured with IB115 cells depleted of human IL-6; type: cell-based, mouse; settings: FIG. 4, myocytes cultured with LPS (IB115) and treated with shIL-6
# Procedure: as §1
# Relative quantities of mRNA of MDM2 direct target genes PHGDH, PSAT1 and PSPH were determined by RT qPCR in C2C12 myoblasts cultured alone or in coculture with IB115 cells treated or not for shRNA mediated depletion of human IL-6 (shIL-6). Data were normalized to the corresponding control samples prepared from IB115 cells treated with a control shRNA (mean SD n=3 independent experiments) Statistical significance was evaluated using non parametric Mann Whitney U tests.
compound,measurement,setting,value
"Cc1c(-c2ccc(O)cc2)n(Cc2ccc(OCCN3CCCCCC3)cc2)c2ccc(O)cc12 [BZA, 1-[[4-[2-(Hexahydro-1H-azepin-1-yl)ethoxy]phenyl]methyl]-2-(4-hydroxyphenyl)-3-methyl-1H-indol-5-ol monoacetate (salt)]",PSPH relative mRNA level,[1]; 100 nM,about 1.8 A.U
same,PHGDH relative mRNA level,[1]; 100 nM,about 0.6 A.U
same,PSAT1 relative mRNA level,[1]; 100 nM,about 1.3 A.U
COc1ccc(S(=O)(=O)Nc2cc(-c3c(O)ccc4ccccc34)c(O)c3ccccc23)cc1 [C188-9],"IL-6 dependent enhancement of the serine synthesis way (PHGDH, PSAT, PSPH mRNA)",[1]; 10 nM,decreases
same,PSPH relative mRNA level,[1]; 10 nM,about 1.5 A.U
same,PHGDH relative mRNA level,[1]; 10 nM,about 0.5 A.U
same,PSAT1 relative mRNA level,[1]; 10 nM,about 1.3 A.U
COc1ccc2[nH]c3c(-c4cccc5ccccc45)nccc3c2c1 [SP141],cell viability of cancer cells C-MDM2 (+),[2],important loss of cell viability
O=[N+]([O-])c1ccc2c(c1)S(=O)(=O)C=C2 [Stattic],"IL-6 dependent enhancement of the serine synthesis way (PHGDH, PSAT, PSPH mRNA)",[1]; 10 nM,decreases
same,PSPH relative mRNA level,[1]; 10 nM,about 1.75 A.U
same,PSAT1 relative mRNA level,[1]; 10 nM,~1.5 A.U
recombinant IL-6: recombinant IL-6 obtained with the method of Wijdenes et al.; positive control for XG-6 growth,Quantity of XG-6 cells,[3],more than 150000 AU
"shIL-6: shRNA to inactivate human IL-6 expression; a sequence may be 5′-GACACTATTTTAATTATTTTTAA-3′ (shRNA, chemistry and expression mode not given here, further chemistry not given here)",relative mRNA level of PSAT,"[4]; myocytes alone about 1, with LPS about 1.75",about 1 AU
same,relative mRNA level of PSPH,"[4]; myocytes alone about 1, with LPS about 2.5",about 1 AU
same,relative mRNA level of PHGDH,"[4]; myocytes alone about 1, with LPS about 4.4",about 1.75 AU
